Entries after “also recorded” stand apart in the source; their conditions may differ. Where two headings read alike, the source gives them in different places.
Key:
[1] = test system: MRSA strain USA300-isolate 923; test: Checkerboard MIC testing of compounds with oxacillin; type: cell-based, Staphylococcus aureus; details: for oxacillin MIC: strain 923, 24 h; for change of the MIC of oxacillin with compound concentration: strain 923, checkerboard; for bactericidal effect of oxacillin (MBC, >99.9% killing): strain 923, wells with FICi≦0.5 spotted on TSA
[2] = test system: vraSR operon (vra promoter, Pvra::lux); test: Primary screen: Pvra-lux luminescence (vraSR induction); type: cell-based, Staphylococcus aureus; details: compound 10 μM, oxacillin 2 μg/mL; luminescence at 2 hours; library screened twice
[3] = test system: VRS2; test: microbe, parasite or virus in culture; type: cell-based, Staphylococcus aureus; details: for MIC: Staphylococcus aureus, read-out: MIC compound; for Synergy category: with vancomycin
Text: (§1) As shown in the analysis of the checkerboard assays (Table 6), gossypol fully potentiated vancomycin (FIC i<0.5) in hVISA, VISA, VRS2 and VRS1. […] Clomiphene partially potentiated vancomycin in hVISA, VISA, and VRS1 and it fully potentiated in strain VRS2.

[4] = test system: VRS1; test: microbe, parasite or virus in culture; type: cell-based, Staphylococcus aureus; details: for MIC: Staphylococcus aureus, read-out: MIC compound
Text: as §1

[5] = test system: hVISA 2275; test: microbe, parasite or virus in culture; type: cell-based, Staphylococcus aureus; details: for MIC: Staphylococcus aureus, read-out: MIC compound; for MIC (in combination) compound+: compound MIC with the indicated Van concentration; for Synergy category: with vancomycin
Text: as §1

[6] = test system: VISA 2283; test: microbe, parasite or virus in culture; type: cell-based, Staphylococcus aureus; details: for Synergy category: VISA 2283, with vancomycin
Text: as §1

[7] = test system: vraR transcription; test: Tertiary screen: qRT-PCR of vraR in strain 923; type: cell-based, Staphylococcus aureus; details: for classification of lux screen result against qRT-PCR (true/false repressor or stimulator): in the presence of oxacillin; for Effect on vraSR Transcription: With oxacillin: qRT-PCR of vraR, compound 10 μM + oxacillin 2 μg/mL
[8] = test system: diverse MRSA strains; test: MIC of oxacillin with a single concentration of compound in multiple MRSA strains; type: cell-based, Staphylococcus aureus; details: for MIC 80 of Ox in presence of compound: panel of 11 MRSA isolates, clom 3.8 μM, gos 15 μM, pyr 0.5 μM; for MIC50 of oxacillin in the presence of compound / MIC80 of oxacillin in the presence of compound / fold decrease in the oxacillin MIC50: panel of strains; for fold decrease in the oxacillin MIC50: with compound against oxacillin alone
Method: Testing potentiation of oxacillin by compounds in multiple MRSA strains: In order to be considered a synergistic agent in therapy of MRSA infection, it must be effective as a potentiator in diverse MRSA strains. To determine whether the oxacillin potentiators were effective against MRSA strains besides USA300, a single effective concentration of three compounds that were not known as antibiotics—gossypol, pyrvinium and clomiphene—were tested against multiple MRSA genetic backgrounds. Each compound was tested at a single optimal concentration, determined in the checkerboard assays, in combination with various concentrations of oxacillin. The strains included in this panel were from diverse genetic backgrounds as determined by multilocus sequence type (MLST) and contained a variety of SCCmec types. […] The MIC80 was […] for clomiphene, gossypol, and pyrvinium, respectively.

[9] = test system: MRSA strain USA300 Pvra-lux; type: cell-based, Staphylococcus aureus; details: compound 10 μM + oxacillin 2 μg/mL; for RG avg (relative growth): ratio of OD600 to oxacillin alone, four runs
Outline: (§2)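 Secondary screen: compound at 10 μM plus oxacillin 2 μg/mL, four biological replicates, luminescence read every 15 minutes. RG and RL are OD600 or max LU with compound plus oxacillin over pooled same-plate oxacillin controls; RL <0.8 repressor, >1.2 stimulator, 0.80-1.2 neutral.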

[10] = test system: vraSR transcription (Pvra::lux); type: cell-based, Staphylococcus aureus; details: compound 10 μM + oxacillin 2 μg/mL; for RL avg (relative luminescence): ratio of LU to oxacillin alone, four runs
Outline: as §2

[11] = test system: MRSA strain 8004-01; test: Checkerboard oxacillin + compound, strain 8004-01; parameters: MIC OX / MIC OX (+) / MIC cmpd alone: unit not given beside the values; details: strain 8004-1 (ST239); for MIC cmpd +: compound in combination with oxacillin; for FICi: oxacillin + compound; for MIC OX (+): oxacillin in combination with compound
[12] = test system: test strain (923 pPvra-lux); test: Primary screen: growth (OD) of test strain with compound, with and without oxacillin; type: cell-based, Staphylococcus aureus; details: compound 10 μM, with and without oxacillin 2 μg/mL; OD at 24 h; library screened twice
[13] = test system: strain 11095; test: Checkerboard oxacillin + compound, strain 11095; parameters: MIC OX / MIC OX (+) / MIC cmpd alone: unit not given beside the values; details: for FICi: oxacillin + compound

Structure (SMILES): Cc1cc2c(C(C)C)c(O)c(O)c(C=O)c2c(O)c1-c1c(C)cc2c(C(C)C)c(O)c(O)c(C=O)c2c1O [Gossypol, 2,2′-bis-(Formyl-1,6,7-trihydroxy-5-isopropyl-3-methylnaphthalene)]
- oxacillin MIC ([1]; compound 0.25 μM): 32 µg/mL
- oxacillin MIC ([1]; compound 0.5 μM): 32 µg/mL
- oxacillin MIC ([1]; compound 1 μM): 16 µg/mL
- oxacillin MIC ([1]; compound 2 μM): 4 µg/mL
- oxacillin MIC ([1]; compound 4 μM): 2 µg/mL
- oxacillin MIC ([1]; compound 8 μM): 2 µg/mL
- oxacillin MIC ([1]; compound 16 μM): 2 µg/mL
- change of the MIC of oxacillin with compound concentration [1]: dose dependent decrease
- bactericidal effect of oxacillin (MBC, >99.9% killing) [1]: increased the bactericidal effect of oxacillin
- primary screen category by effect on vraSR (Pvra-lux luminescence) [2]: repressed Pvra::lux in both primary screens
- MIC [3]: 5.2 µg/mL
- FICi V + compound ([3]; VRS2): 0.31
- Van FIC ([3]; VRS2): 0.06
- compound FIC ([3]; VRS2): 0.25
- fold decrease Van MIC ([3]; VRS2): 16 fold
- MIC (in combination) compound+ ([3]; VRS2, compound MIC with the indicated Van concentration): 1.3
- Synergy category ([3]; VRS2, listed as Gos): synergistic (fully potentiated vancomycin (FIC i<0.5))
- MIC [4]: 20.8 µg/mL
- Synergy category ([4]; VRS1, with vancomycin, listed as Gos): synergistic (fully potentiated vancomycin (FIC i<0.5))
- MIC [5]: 10.4 µg/mL
- FICi V + compound ([5]; hVISA 2275): 0.38
- Van FIC ([5]; hVISA 2275): 0.25
- compound FIC ([5]; hVISA 2275): 0.125
- fold decrease Van MIC ([5]; hVISA 2275): 4 fold
- MIC (in combination) compound+ ([5]; hVISA 2275): 1.3
- Synergy category ([5]; hVISA 2275): fully potentiated (fully potentiated vancomycin (FIC i<0.5))
- Synergy category ([5]; hVISA 2275, listed as Gos): synergistic (fully potentiated vancomycin (FIC i<0.5))
- MIC ([6]; Staphylococcus aureus, VISA, read-out: MIC compound): 10.4 µg/mL
- Synergy category [6]: fully potentiated (fully potentiated vancomycin (FIC i<0.5))
- Synergy category ([6]; listed as Gos): partial (partially potentiated vancomycin (FIC i>0.5 and <1.0))
- classification of lux screen result against qRT-PCR (true/false repressor or stimulator) [7]: true vraSR expression repressors
- Effect on vraSR Transcription: With oxacillin [7]: vraR inhibitors; also recorded: repress
- MIC 80 of Ox in presence of compound [8]: 8 µg/mL
- MIC50 of oxacillin in the presence of compound [8]: 0.5 µg/mL
- MIC80 of oxacillin in the presence of compound [8]: 0.008 µg/mL
- fold decrease in the oxacillin MIC50 [8]: 32 fold
- OD600 category [9]: inhibited (of <0.8 were classified as oxacillin synergists or potentiators)
- RG avg (relative growth) [9]: 0.16
- Effect on vraSR transcription [10]: repress (“vraSR repressors” (mean RL of <0.8))
- RL avg (relative luminescence) [10]: 0.11
- FIC Compound [11]: .5
- FIC Ox [11]: .06
- MIC cmpd alone [11]: 40
- MIC cmpd + [11]: 20 µg/mL
- FICi [11]: 0.56
- FICi ([11]; listed as Gos): .56
- MIC OX (+) [11]: 32
- primary screen category by effect on growth of MRSA strain 923 [12]: strong growth inhibitors on their own

Structure (SMILES): Cc1cc(/C=C/c2ccc3cc(N(C)C)ccc3[n+]2C)c(C)n1-c1ccccc1 [Pyrvinium pamoate, 2-[(E)-2-(2,5-Dimethyl-1-phenylpyrrol-3-yl)ethenyl]-N,N,1-trimethylquinolin-1-ium-6-amine]
- oxacillin MIC ([1]; compound 0.25 μM): 16 µg/mL
- oxacillin MIC ([1]; compound 0.5 μM): 4 µg/mL
- oxacillin MIC ([1]; compound 1 μM): 2 µg/mL
- change of the MIC of oxacillin with compound concentration [1]: dose dependent decrease
- bactericidal effect of oxacillin (MBC, >99.9% killing) [1]: increased the bactericidal effect of oxacillin
- primary screen category by effect on vraSR (Pvra-lux luminescence) [2]: repressed Pvra::lux in both primary screens
- MIC ([3]; VRS2, compound alone): 1.12 µg/mL
- Synergy category ([3]; VRS2, listed as Pyr): synergistic (fully potentiated vancomycin (FIC i<0.5))
- MIC ([4]; VRS1, compound alone): 2.24 µg/mL
- fold decrease Van MIC ([4]; VRS1): 64 fold
- MIC ([5]; hVISA 2275, compound alone): 16 µg/mL
- FICi V + compound ([5]; hVISA 2275): 0.54
- Van FIC ([5]; hVISA 2275): 0.50
- compound FIC ([5]; hVISA 2275): 0.04
- fold decrease Van MIC ([5]; hVISA 2275): 2 fold
- MIC (in combination) compound+ ([5]; hVISA 2275): 0.56
- Synergy category ([5]; hVISA 2275, listed as Pyr): partial (partially potentiated vancomycin (FIC i>0.5 and <1.0))
- Synergy category ([6]; listed as Pyr): non syn
- classification of lux screen result against qRT-PCR (true/false repressor or stimulator) [7]: true vraSR expression repressors
- Effect on vraSR Transcription: With oxacillin [7]: vraR inhibitors; also recorded: repress
- MIC 80 of Ox in presence of compound [8]: 32 µg/mL
- MIC50 of oxacillin in the presence of compound [8]: 1 µg/mL
- MIC80 of oxacillin in the presence of compound [8]: 0.032 µg/mL
- fold decrease in the oxacillin MIC50 [8]: 16 fold
- OD600 category [9]: inhibited (of <0.8 were classified as oxacillin synergists or potentiators)
- RG avg (relative growth) [9]: 0.39
- Effect on vraSR transcription [10]: repress (“vraSR repressors” (mean RL of <0.8))
- RL avg (relative luminescence) [10]: 0.31
- MIC cmpd alone [11]: >4
- MIC cmpd + [11]: >4 µg/mL
- FICi [11]: 7
- MIC OX (+) [11]: >256
- FIC Compound [13]: 0.25
- FIC Ox [13]: .0078
- MIC cmpd alone [13]: 16
- fold decrease of the oxacillin MIC [13]: 128 fold
- FICi [13]: 0.26
- FICi ([13]; listed as Pyr): .26
- MIC OX (+) ([13]; oxacillin in combination with compound): 4
- primary screen category by effect on growth of MRSA strain 923 [12]: strong growth inhibitors on their own
